Results as given in ChEMBL document CHEMBL1125682, “Novel synthesis and biochemical properties of an [125I]-labeled photoaffinity probe for thromboxane A2/prostaglandin H2 receptors” (J Med Chem, 1991).

Experiments:
Thromboxane A2 receptor [1] = target: T1, Thromboxane A2 receptor (Homo sapiens, UniProt P21731); assay: Binding affinity towards Thromboxane A2/ Prostaglandin H2 receptor in human platelet membranes using [125I]- as the radioligand.; type: cell membranes
T1 sequence (P21731 whole entry): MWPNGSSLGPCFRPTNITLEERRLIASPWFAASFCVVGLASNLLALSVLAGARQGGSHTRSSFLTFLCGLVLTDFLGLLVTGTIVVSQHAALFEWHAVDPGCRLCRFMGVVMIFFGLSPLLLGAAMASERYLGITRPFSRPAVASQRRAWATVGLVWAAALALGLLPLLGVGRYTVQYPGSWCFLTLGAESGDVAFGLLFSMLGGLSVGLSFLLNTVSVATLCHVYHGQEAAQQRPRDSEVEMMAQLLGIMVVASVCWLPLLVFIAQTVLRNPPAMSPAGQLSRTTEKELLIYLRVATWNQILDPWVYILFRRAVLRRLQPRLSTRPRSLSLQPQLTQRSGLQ

Thromboxane A2 receptor [2] = target: T1, Thromboxane A2 receptor; assay: Binding affinity towards Thromboxane A2 receptor/Prostaglandin receptor in human platelet membranes using [125I]- as the radioligand; type: cell membranes

Row | SMILES | IC50 (Thromboxane A2 receptor [1]) [nM] | IC50 (Thromboxane A2 receptor [2]) [nM]
1 | O=C(O)C[C@@H]1CCCc2c1n(Cc1ccc(Cl)cc1)c1ccc(F)cc21 (stereo in doubt; L-657926) | 1500 | 
2 | O=C(O)CCC/C=C\C[C@@H]1[C@@H](/C=C/[C@@H](O)COc2ccc(I)cc2)[C@H]2CC[C@@H]1O2 |  | 50
3 | O=C(O)C[C@@H]1CCCc2c1n(Cc1ccc(Cl)cc1)c1ccc(F)cc21 (stereo in doubt; L-657925) | 11.2 | 
